Measured values as given in a melting point compilation (Tetko et al.; mined from patent text by program, amines drawn as free bases though some values may be those of a salt).

Compound | melting point [°C]
COc1ccc(CNc2n[nH]c(N=CN(C)C)c2C#N)cc1 | 147 to 148
Cn1ccnc1Sc1ccc(Nc2c(C#N)cnc3cc(/C=C/CCCN4CCCC4)ccc23)cc1Cl | 217 to 222
ON=Cc1cc(-c2ncc(C(F)(F)F)cc2Cl)ccc1Cl | 173 to 174
COc1cccc2c1CCc1c-2occ(C=O)c1=O | 201 to 202
COc1ccc(Oc2ccc([N+](=O)[O-])cc2)c(Cl)c1Cl | 165 to 166
COc1cccc(CN2N=C(c3ccc(OC)c(OC)c3)[C@@H]3CCCC[C@@H]3C2=O)c1 (relative stereo) | 115
CC(C)c1cc(S(N)(=O)=O)c(C(C)C)cc1C(=O)O | 225 to 231
O=C(N[C@@H](CC1CCCCC1)C(=O)N[C@@H](Cc1ccccc1)C(=O)CSCc1ccco1)OCc1ccccc1 | 124 to 125
CN(C)C(=S)Oc1ccc(CCCCN)cc1 | 89 to 93
C[C@H](c1ccccc1)n1c(O)nc2c(Cl)nc3ccccc3c21 | 227 to 229
c1ccc(CNc2nc(-c3ccco3)nc3ccccc23)cc1 | 152 to 154
COc1ccc2c(c1)C(=O)c1c-2c(Cl)nc2ccccc12 | 227 to 228
CCCCc1nn(-c2cc([N+](=O)[O-])ccc2Br)c(=O)n1Cc1ccc(-c2ccccc2S(=O)(=O)NC(C)(C)C)cc1 | 126 to 128
Cc1noc(NS(=O)(=O)c2ccc(Cl)c(Cl)c2)c1Br | 144 to 146
Nc1cc(F)nc(F)c1F | 94 to 96
Cc1cc(Br)c2c(c1)/C(=N\NC(N)=O)C(=O)N2CCN(C(C)C)C(C)C | 189 to 192
CC(C)(C)c1cc(SCCc2n[nH]c(=S)o2)cc(C(C)(C)C)c1O | 124
Cc1cc(C(C)(C)C)c(OP2OCCN2C(C)(C)C)c(C(C)(C)C)c1 (stereo not given) | 105 to 107
Cc1cc(C(F)(F)F)cc(N(C(N)=O)c2c(Cl)cccc2Cl)n1 | 165
CC1=C(C(=O)O)C(c2ccccc2Cl)C(c2nnco2)=C(C)N1 (stereo not given) | 187 to 190
Cc1c(C)c(Cl)c2[nH]c(Cl)nc2c1Cl | 280 to 285
COc1cccc(NS(=O)(=O)c2ccc(NC3=C(Cl)C(=O)c4ccccc4C3=O)cc2)c1 | 213 to 216
O=C1Nc2cccnc2N(C(=O)CN2CCCCC2CN2CCOCC2)c2ccccc21 (stereo not given) | 203 to 205
COCc1ncc(C(=O)O)s1 | 131
O=CNc1ccc(F)c(Cl)c1 | 94 to 97

Compound | melting point [°C]
O=C(CCOCc1ccc2ccccc2c1)c1ccccc1 | 56 to 57
Cc1ccc(-c2c(NS(=O)(=O)c3ccc(C(C)(C)C)cc3)ncnc2OCCOc2ccc(N)cc2)cc1 | 190 to 191
CN(Cc1ccccc1)C(=O)c1ccc2nonc2c1 | 105 to 106
OC(CCl)CNc1ccc(Cl)c(Cl)c1 (stereo not given) | 51 to 53
O=C(Nc1cccc(Cl)c1C(=O)O)c1ccccc1 | 208 to 210
O=C1CCC(c2ccc(C3=NNC(=O)CC3)cc2)=NN1 | > 250
CC(=O)c1cccc(C)c1NC(=O)CCBr | 99 to 101
O=[N+]([O-])C=C1SCCN1Cc1ccccc1 | 136 to 138
CCCCS(=O)(=O)NC(=O)/C=C/c1c(C)nn(C)c1-n1ccc2cc(Cl)cnc21 | 245 to 248
O=C(OCC=C(c1ccccc1)[N+](=O)[O-])C(F)(F)C(F)(F)C(F)(F)C(F)(F)C(F)(F)C(F)(F)C(F)(F)F | 79 to 81
CC(O)C(CCCc1ccccc1)n1ncc2c(=O)[nH]c(Cc3ccc(Cl)c(Cl)c3)nc21 (stereo not given) | 161
O=Cc1cc(-c2ncc(C(F)(F)F)cc2Cl)ccc1Cl | 94
CC1Cc2cc3c(cc2C(c2ccc([N+](=O)[O-])cc2)=NN1C(=O)NCCCl)OCO3 (stereo not given) | 222 to 223
Cc1cc(C)c(C=NNC(=O)c2ccc(O)cc2)[nH]1 | 261
CN1CCN(c2ccc(S(=O)(=O)c3ccccc3)c3ccccc23)CC1 | 71 to 72
CCOC(=O)CON(C(=S)Nc1cc(Cl)ccc1C)C(C)C | 83 to 85
CC1(C)C=C(C(=O)NCC2COC(C)(C)O2)C(C)(C)N1 (stereo not given) | 55 to 57
COC(=O)C(C)(C)CCCOc1cc(C)c(OC(=O)Nc2c(C(C)C)cccc2C(C)C)cc1C | 111 to 112
O=C(CCC(=O)N1CCC(c2ccc(Cl)cc2)CC1)c1ccc2c(c1)CN(Cc1ccccc1)CC2 | 102 to 103
O=C1CC(C(O)(c2ccc(F)cc2)c2ccc(F)cc2)CN1Cc1ccccc1 (stereo not given) | 158 to 160
O=C(c1ccc(Cl)cc1)c1ccc2nccc(C(=O)O)c2c1 | > 260
Cc1cccc(C#Cc2cccc(Br)c2)n1 | 60 to 61
CCOC(=O)c1cn(C2CC2)c2c(C#N)c(N3C[C@@H]4CCCN[C@@H]4C3)c(F)cc2c1=O | 209 to 210
Oc1cccc([C@H]2CCCC[C@H]2NCCCCc2ccccc2)c1 (racemic) | 115 to 116
CCCNC(=O)c1c(N)cc(Cl)cc1Cl | 113 to 119

Compound | melting point [°C]
Oc1ccc(-c2c3ccccc3c(Cl)c3sc4ccccc4c23)cc1 | 193 to 195
CSCC[C@H](NC(=O)OCc1ccccc1)C(=O)[C@@H](C(N)c1ccccc1)[C@H](O)C(=O)N1C[C@@H](Cl)C[C@H]1C(=O)NC(C)(C)C (stereo not given in full) | 81 to 88
CC1=CC(=O)C=CC1(C)C(Cl)(Cl)Cl (stereo not given) | 57
CN1CCN(C(=O)c2cc(S(=O)(=O)NC34CC5CC(CC(C5)C3)C4)ccc2N)CC1 | 214 to 215
CCCCCCSc1nn2c(=O)cc(Cl)nc2s1 | 95 to 96
O=C(C(=O)N1CCC(c2nnnn2-c2ccccc2)CC1)c1c[nH]c2c(-n3ccnn3)ncc(F)c12 | 257 to 258
CCOc1cc(O[Si](C)(C)C(C)(C)C)c(C)c(C(=O)OCc2ccc([N+](=O)[O-])cc2)c1C | 75 to 76
CN1CCN(CC(=O)N2c3ccccc3C(=O)Nc3cccnc32)CC1 | 198 to 200
COc1cc2c(cc1OCc1ccccc1)CCN(C(=O)NCCN(C)C1CCCCC1)C2c1ccccc1 (stereo not given) | 109 to 110
NS(=O)(=O)c1cc(C(=O)Nc2ccccc2)ccc1F | 219 to 221
CSc1nn(C(C)(C)C)c(=O)c(Cl)c1C1CCC(C(C)(C)C)CC1 (stereo not given) | 96
CCOC(=O)NC(=N)NC#N | 193 to 194
CN1C(=O)C2CC2(c2ccc(N)cc2)C1=O (stereo not given) | 137 to 139
Cc1ccc(-c2n[nH]c(=O)c(-c3ccccc3)c2-c2ccc(C)cc2)cc1 | 282 to 284
Cc1nc2cccc(C)n2c(=O)c1CCN1CCC(c2c[nH]c3ccccc23)CC1 | 225
O=C(Nc1ccc2ccc(-c3ccc(Cl)c(Cl)c3)nc2n1)c1cccc(Br)c1 | 176 to 178
COc1cc2ncnc(N3CCN(C(=S)NCc4ccc(N(C)C)cc4)CC3)c2cc1OC | 177 to 178
O=C(c1ccc(Cl)cc1)n1cc(Cc2cc(=O)n(C3CCCCC3)[nH]2)c2ccccc21 | 109 to 111
O=CC(=O)c1ccccc1 | 120 to 122
CC(CC(C)(C)OOC(=O)NC1CCCCC1)OC(=O)NC1CCCCC1 (stereo not given) | 224 to 226
COc1cc(C(=O)Cl)ccc1S(=O)(=O)Cl | 86 to 88
Cc1ccc(C(=O)Nc2c(NC(=O)CN3CCN(C)CC3)ccc3c2C(=O)c2ccccc2C3=O)cc1 | 214 to 215
C1=Nc2cc3c(cc2=C1)N=c1ccccc1=3 | 210 to 211
CC(C)(Cc1ccc(Cl)cc1)C(O)(Cn1ccnc1)c1ccc(Cl)cc1 (stereo not given) | 174
CCOC(=O)c1cc(O)c2c(OC(C)C)ccc(Br)c2c1 | 106

Compound | melting point [°C]
NC1=NC(c2cccc(-c3cccnc3F)c2)C2=NC(c3ccc(OC(F)F)cc3)C3(CCC3)CN12 (stereo not given) | 220 to 226
CNC(=S)C1=CC2(CCOCC2)Oc2ccc([N+](=O)[O-])cc21 | 223 to 225
CC12CCC3c4ccc(OCc5ccccc5)cc4CCC3C1CCC2=O (stereo not given) | 126 to 127
CCCCNC(=O)COC1c2ccccc2C(=O)N1c1ccc2ccc(OC)nc2n1 (stereo not given) | 170
c1ccc2c(c1)CC1=C2CCCC1 | 57
Oc1ccc(Oc2ccc(Br)cc2F)cc1 | 83.5 to 85
ClCCCCOc1ccccc1/C=C/c1nc2ccccc2s1 | 98 to 100
CC(C)c1cccc(C(C)C)c1NC(=O)CNC(c1ccccc1)c1ccccn1 (stereo not given) | 135 to 136
COc1ccc2[nH]ccc2c1Cl | 112 to 113
CC(C)Cn1cnc2cnc3cccnc3c21 | 82 to 84
CC(C)(CO)NC(=O)c1nn(C2CCCCO2)cc1NC(=O)c1ccccn1 (stereo not given) | 194 to 195
CC12CC(=O)C3C(CCC4CC(O)CCC43C)C1CCC2C(=O)COc1ccc([N+](=O)[O-])cc1 (stereo not given) | 186 to 187
COCc1c(C(O)c2ccccc2)ncc2c1c1cc(OCc3ccccc3)ccc1n2S(=O)(=O)c1ccc(C)cc1 (stereo not given) | 146 to 147
COCCCN1CC(=O)c2cc(Cl)sc2S1(=O)=O | 48 to 52
O=C(O)c1cc(-c2ccc(Br)cc2)nc(-c2ccc(Br)cc2)c1 | 292 to 294
C=C1CC(COc2cc(=O)oc3ccccc23)(c2ccccc2)OC1=O (stereo not given) | 212 to 214
CN1CCC(OC(c2cccc(SCCNC(N)=O)c2)c2nc3ccccc3[nH]2)CC1 (stereo not given) | 136
Cc1ccc2c3c(ccc2n1)OC[C@H](CNC(=O)C1CCc2c([nH]c4ccc(F)cc24)C1)O3 (stereo not given in full) | 92 to 96
Fc1ccc2c(c1)[C@@H]1c3ccccc3N[C@@H]1C2 (relative stereo) | 116 to 117
CNc1nc(-c2ccccc2)c(-c2ccc(=O)n(C(C)C)n2)s1 | 234 to 236
O=C(O)C1=Cc2cc(Cl)c(Oc3ccc(Cl)c(F)c3)cc2OC1C(F)(F)F (stereo not given) | 207
Cn1ncc(/C=C/C(=O)Nc2ccc(CCc3nccs3)cc2)c1-c1ccc(F)cc1 | 201 to 202
COc1nc(OC)c(C=CC(C)=O)c(N(C)C)n1 | 116
CCOC(=O)CNCc1cccc(-c2c(CC(=O)Nc3ccc(F)cc3C(F)(F)F)c(=O)oc3cc(Cl)c(C)cc23)c1 | 153 to 155
COC(=O)NN[C@@H]1c2cc(C#N)ccc2OC(C)(C)[C@H]1O (relative stereo) | 174 to 175
